# Source: patent US12441768B2, “Compositions and methods for treating endometriosis” (EndoMet Biosciences, Inc., priority 2018, dated 2025)
# Where a SMILES comes first, the peptide text is derived from it.
# Tests used:
# [1] = biological target: Wnt-responsive promoter (TCF/LEF); assay: Wnt-dependent luciferase reporter assay; assay type: cell-based, murine
# Outline: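 EC50 (uM) derived from inhibition of luminescence in Wnt3a-stimulated murine 3T3 cells expressing luciferase under a TCF/LEF promoter, with peptides added across a concentration range and vehicle as control.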
# [2] = % Viability non-Wnt responsive cells
# β-catenin = biological target: T1, β-catenin (Homo sapiens, UniProt P35222); assay: KD50 measurement using competitive fluorescence polarization (FP) with labelled TCF4; assay type: binding; conditions: fluorescence polarization, β-catenin; read-out: β-Cat FP KD
# T1 sequence (P35222 1-781): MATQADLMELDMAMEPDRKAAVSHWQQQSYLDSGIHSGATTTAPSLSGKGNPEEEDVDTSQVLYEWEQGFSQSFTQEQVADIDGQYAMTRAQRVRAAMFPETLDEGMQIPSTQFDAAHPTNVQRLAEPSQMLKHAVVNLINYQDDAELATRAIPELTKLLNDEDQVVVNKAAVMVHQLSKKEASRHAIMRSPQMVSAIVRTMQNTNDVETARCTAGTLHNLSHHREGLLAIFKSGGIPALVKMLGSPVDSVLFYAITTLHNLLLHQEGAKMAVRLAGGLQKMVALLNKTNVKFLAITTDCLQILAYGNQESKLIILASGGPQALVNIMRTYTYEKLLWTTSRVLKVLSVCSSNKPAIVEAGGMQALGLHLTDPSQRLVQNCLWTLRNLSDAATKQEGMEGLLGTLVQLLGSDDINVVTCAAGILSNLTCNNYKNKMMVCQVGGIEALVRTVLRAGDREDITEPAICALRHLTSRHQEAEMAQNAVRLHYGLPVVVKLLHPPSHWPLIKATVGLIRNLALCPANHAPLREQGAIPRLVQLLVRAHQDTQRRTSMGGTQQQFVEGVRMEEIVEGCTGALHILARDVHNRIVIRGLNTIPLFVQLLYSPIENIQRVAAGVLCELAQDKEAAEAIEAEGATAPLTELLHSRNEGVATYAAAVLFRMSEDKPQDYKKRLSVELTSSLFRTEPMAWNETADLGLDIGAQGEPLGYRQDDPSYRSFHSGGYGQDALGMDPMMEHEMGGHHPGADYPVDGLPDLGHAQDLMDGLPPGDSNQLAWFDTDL
# Outline: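 First, β-catenin at 100 nM is mixed with 5 nM labelled TCF4 at room temperature. Next, compound is added across serial dilutions (10 nM to 30 uM). Finally, fluorescence polarization is measured (ex 470 nm, em 520 nm); experiments are done three times.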
Compound,EC50 [1],Kd (β-catenin),viability [2]
"CC[C@H](C)[C@@H]1NC(=O)[C@H](CC(C)C)NC(=O)[C@H]([C@@H](C)CC)NC(=O)[C@H](Cc2c[nH]c3ccccc23)NC(=O)[C@H](CCSC)NC(=O)[C@@H](N)CCCCNC(=O)CNC(=O)[C@H](Cc2c[nH]c3ccccc23)NC(=O)[C@H](Cc2ccccc2)NC(=O)[C@H](CO)NC1=O [compound 71] (HELM PEPTIDE1{K.M.W.I.L.I.S.F.W.G}$PEPTIDE1,PEPTIDE1,1:R3-10:R2$$$V2.0)",> 30 µM,> 30 µM,93.7%
CC[C@H](C)[C@H](NC(=O)[C@H](CC(C)C)NC(=O)[C@H](Cc1ccccc1)NC(=O)[C@H](Cc1c[nH]c2ccccc12)NC(=O)[C@H](CCSC)NC(=O)[C@H](CCCNC(=N)N)NC(=O)[C@H](CO)NC(=O)[C@@H](N)CCSC)C(=O)N[C@@H](CO)C(=O)N[C@@H](Cc1ccccc1)C(=O)N[C@@H](Cc1c[nH]c2ccccc12)C(N)=O [compound 72] (H-MSRMWFLISFW-NH2),> 30 µM,> 30 µM,88.6%
CC[C@H](C)[C@H](NC(=O)[C@H](CC(C)C)NC(=O)[C@H](Cc1ccccc1)NC(=O)[C@H](Cc1c[nH]c2ccccc12)NC(=O)[C@H](CCSC)NC(=O)[C@H](CCCNC(=N)N)NC(=O)[C@@H](NC(=O)[C@@H](N)CCSC)[C@@H](C)O)C(=O)N[C@@H](CO)C(=O)N[C@@H](Cc1ccccc1)C(=O)N[C@@H](Cc1c[nH]c2ccccc12)C(N)=O [compound 73] (H-MTRMWFLISFW-NH2),> 30 µM,> 30 µM,97.3%
CC[C@H](C)[C@H](NC(=O)[C@H](CC(C)C)NC(=O)[C@H](Cc1ccccc1)NC(=O)[C@H](Cc1c[nH]c2ccccc12)NC(=O)[C@H](CCCNC(=N)N)NC(=O)[C@H](CCCNC(=N)N)NC(=O)[C@H](CO)NC(=O)[C@@H](N)CCSC)C(=O)N[C@@H](CO)C(=O)N[C@@H](Cc1ccccc1)C(=O)N[C@@H](Cc1c[nH]c2ccccc12)C(N)=O [compound 75] (H-MSRRWFLISFW-NH2),> 30 µM,> 30 µM,99.2%
CC[C@H](C)[C@H](NC(=O)[C@H](CC(C)C)NC(=O)[C@H](Cc1ccccc1)NC(=O)[C@H](Cc1c[nH]c2ccccc12)NC(=O)[C@@H](NC(=O)[C@H](CCCNC(=N)N)NC(=O)[C@H](CO)NC(=O)[C@@H](N)CCSC)[C@@H](C)O)C(=O)N[C@@H](CO)C(=O)N[C@@H](Cc1ccccc1)C(=O)N[C@@H](Cc1c[nH]c2ccccc12)C(N)=O [compound 76] (H-MSRTWFLISFW-NH2),> 30 µM,> 30 µM,105%
CC[C@H](C)[C@H](NC(=O)[C@H](CC(C)C)NC(=O)[C@H](Cc1ccccc1)NC(=O)[C@H](Cc1c[nH]c2ccccc12)NC(=O)[C@H](Cc1ccccc1)NC(=O)[C@H](CCCNC(=N)N)NC(=O)[C@H](CO)NC(=O)[C@@H](N)CCSC)C(=O)N[C@@H](CO)C(=O)N[C@@H](Cc1ccccc1)C(=O)N[C@@H](Cc1c[nH]c2ccccc12)C(N)=O [compound 77] (H-MSRFWFLISFW-NH2),> 30 µM,> 30 µM,107%
CC[C@H](C)[C@H](NC(=O)[C@H](CC(C)C)NC(=O)[C@H](Cc1ccccc1)NC(=O)[C@H](Cc1c[nH]c2ccccc12)NC(=O)[C@H](CCSC)NC(=O)[C@H](CCCNC(=N)N)NC(=O)[C@H](CO)NC(=O)[C@@H](N)Cc1ccccc1)C(=O)N[C@@H](CO)C(=O)N[C@@H](Cc1ccccc1)C(=O)N[C@@H](Cc1c[nH]c2ccccc12)C(N)=O [compound 81] (H-FSRMWFLISFW-NH2),> 30 µM,> 30 µM,90.7%
CC[C@H](C)[C@H](NC(=O)[C@H](CC(C)C)NC(=O)[C@H](Cc1ccccc1)NC(=O)[C@H](Cc1c[nH]c2ccccc12)NC(=O)[C@H](CCSC)NC(=O)[C@H](CCCNC(=N)N)NC(=O)[C@H](CO)NC(=O)[C@@H](N)CCCCN)C(=O)N[C@@H](CO)C(=O)N[C@@H](Cc1ccccc1)C(=O)N[C@@H](Cc1c[nH]c2ccccc12)C(N)=O [compound 83] (H-KSRMWFLISFW-NH2),> 30 µM,> 30 µM,90.9%
CC[C@H](C)[C@H](NC(=O)[C@H](CC(C)C)NC(=O)[C@H](Cc1ccccc1)NC(=O)[C@H](Cc1c[nH]c2ccccc12)NC(=O)[C@H](CCSC)NC(=O)[C@H](CCCNC(=N)N)NC(=O)[C@H](CO)NC(=O)[C@@H](N)CCCNC(=N)N)C(=O)N[C@@H](CO)C(=O)N[C@@H](Cc1ccccc1)C(=O)N[C@@H](Cc1c[nH]c2ccccc12)C(N)=O [compound 84] (H-RSRMWFLISFW-NH2),> 30 µM,> 30 µM,88.6%
CC[C@H](C)[C@H](NC(=O)[C@H](CC(C)C)NC(=O)[C@H](Cc1ccccc1)NC(=O)[C@H](Cc1c[nH]c2ccccc12)NC(=O)[C@H](CCSC)NC(=O)[C@H](CCCNC(=N)N)NC(=O)[C@H](CO)NC(=O)[C@@H](N)CC(=O)O)C(=O)N[C@@H](CO)C(=O)N[C@@H](Cc1ccccc1)C(=O)N[C@@H](Cc1c[nH]c2ccccc12)C(N)=O [compound 85] (H-DSRMWFLISFW-NH2),> 30 µM,> 30 µM,107%
CC[C@H](C)[C@H](NC(=O)[C@H](CC(C)C)NC(=O)[C@H](Cc1ccccc1)NC(=O)[C@H](Cc1c[nH]c2ccccc12)NC(=O)[C@H](CCSC)NC(=O)[C@H](CCCNC(=N)N)NC(=O)[C@H](CO)NC(=O)[C@@H](N)CCC(=O)O)C(=O)N[C@@H](CO)C(=O)N[C@@H](Cc1ccccc1)C(=O)N[C@@H](Cc1c[nH]c2ccccc12)C(N)=O [compound 86] (H-ESRMWFLISFW-NH2),> 30 µM,> 30 µM,103%

# The next lines start with results.
EC50 [1],Kd (β-catenin),Compound,viability [2]
> 30 µM,> 30 µM,CSCC[C@H](NC(=O)[C@H](CCCNC(=N)N)NC(=O)[C@H](CO)NC(=O)[C@@H](N)CCSC)C(=O)N[C@@H](Cc1c[nH]c2ccccc12)C(=O)N[C@@H](Cc1ccccc1)C(=O)N[C@@H](CC(C)C)C(=O)N[C@@H](CC(N)=O)C(=O)N[C@@H](CO)C(=O)N[C@@H](Cc1ccccc1)C(=O)N[C@@H](Cc1c[nH]c2ccccc12)C(=O)NCC(=O)O [compound 70] (H-MSRMWFLNSFWG-OH),98.5%
> 30 µM,> 30 µM,CC[C@H](C)[C@H](NC(=O)[C@H](CC(C)C)NC(=O)[C@H](Cc1ccccc1)NC(=O)[C@H](Cc1c[nH]c2ccccc12)NC(=O)[C@H](CCSC)NC(=O)[C@H](CCCNC(=N)N)NC(=O)[C@H](CCC(N)=O)NC(=O)[C@@H](N)CCSC)C(=O)N[C@@H](CO)C(=O)N[C@@H](Cc1ccccc1)C(=O)N[C@@H](Cc1c[nH]c2ccccc12)C(N)=O [compound 74] (H-MQRMWFLISFW-NH2),91.2%
> 30 µM,> 30 µM,CC[C@H](C)[C@H](NC(=O)[C@H](CC(C)C)NC(=O)[C@H](Cc1ccccc1)NC(=O)[C@H](Cc1c[nH]c2ccccc12)NC(=O)[C@H](Cc1c[nH]c2ccccc12)NC(=O)[C@H](CCCNC(=N)N)NC(=O)[C@H](CO)NC(=O)[C@@H](N)CCSC)C(=O)N[C@@H](CO)C(=O)N[C@@H](Cc1ccccc1)C(=O)N[C@@H](Cc1c[nH]c2ccccc12)C(N)=O [compound 78] (H-MSRWWFLISFW-NH2),101%
> 30 µM,> 30 µM,CC[C@H](C)[C@H](NC(=O)[C@H](CC(C)C)NC(=O)[C@H](Cc1ccccc1)NC(=O)[C@H](Cc1c[nH]c2ccccc12)NC(=O)[C@H](CCSC)NC(=O)[C@H](CCCNC(=N)N)NC(=O)[C@H](CO)NC(=O)[C@@H](N)Cc1c[nH]c2ccccc12)C(=O)N[C@@H](CO)C(=O)N[C@@H](Cc1ccccc1)C(=O)N[C@@H](Cc1c[nH]c2ccccc12)C(N)=O [compound 79] (H-WSRMWFLISFW-NH2),98.8%
> 30 µM,> 30 µM,CC[C@H](C)[C@H](NC(=O)[C@H](CC(C)C)NC(=O)[C@H](Cc1c[nH]c2ccccc12)NC(=O)[C@H](Cc1c[nH]c2ccccc12)NC(=O)[C@H](CCSC)NC(=O)[C@H](CCCNC(=N)N)NC(=O)[C@H](CO)NC(=O)[C@@H](N)CCSC)C(=O)N[C@@H](CO)C(=O)N[C@@H](Cc1ccccc1)C(=O)N[C@@H](Cc1c[nH]c2ccccc12)C(N)=O [compound 80] (H-MSRMWWLISFW-NH2),101%
> 30 µM,> 30 µM,CC[C@H](C)[C@H](NC(=O)[C@H](CC(C)C)NC(=O)[C@H](Cc1ccccc1)NC(=O)[C@H](Cc1c[nH]c2ccccc12)NC(=O)[C@H](CCSC)NC(=O)[C@H](CCCNC(=N)N)NC(=O)[C@H](CO)NC(=O)[C@@H](N)Cc1ccc(O)cc1)C(=O)N[C@@H](CO)C(=O)N[C@@H](Cc1ccccc1)C(=O)N[C@@H](Cc1c[nH]c2ccccc12)C(N)=O [compound 82] (H-YSRMWFLISFW-NH2),84%
